Measurements from patent US12377155B2, “Bicyclic peptide ligands specific for PSMA” (BicycleRD Limited, priority 2018, dated 2025).

molecular target: PSMA (Homo sapiens, UniProt Q04609); test: PSMA binding, fluorescence polarization assay; details: as shown in Table 1
Method: PSMA binding was measured using the fluorescence polarization assay methodology described in Shen et al (2013) PLOS ONE 8(7), […] and PSMA enzyme inhibition was measured using the methodology described in WO 2009/070302.
The peptide ligands of the invention were tested in the above mentioned PSMA binding and enzyme inhibition assays and the results are shown in Table 1: […]

PSMA, sequence (Q04609 whole entry): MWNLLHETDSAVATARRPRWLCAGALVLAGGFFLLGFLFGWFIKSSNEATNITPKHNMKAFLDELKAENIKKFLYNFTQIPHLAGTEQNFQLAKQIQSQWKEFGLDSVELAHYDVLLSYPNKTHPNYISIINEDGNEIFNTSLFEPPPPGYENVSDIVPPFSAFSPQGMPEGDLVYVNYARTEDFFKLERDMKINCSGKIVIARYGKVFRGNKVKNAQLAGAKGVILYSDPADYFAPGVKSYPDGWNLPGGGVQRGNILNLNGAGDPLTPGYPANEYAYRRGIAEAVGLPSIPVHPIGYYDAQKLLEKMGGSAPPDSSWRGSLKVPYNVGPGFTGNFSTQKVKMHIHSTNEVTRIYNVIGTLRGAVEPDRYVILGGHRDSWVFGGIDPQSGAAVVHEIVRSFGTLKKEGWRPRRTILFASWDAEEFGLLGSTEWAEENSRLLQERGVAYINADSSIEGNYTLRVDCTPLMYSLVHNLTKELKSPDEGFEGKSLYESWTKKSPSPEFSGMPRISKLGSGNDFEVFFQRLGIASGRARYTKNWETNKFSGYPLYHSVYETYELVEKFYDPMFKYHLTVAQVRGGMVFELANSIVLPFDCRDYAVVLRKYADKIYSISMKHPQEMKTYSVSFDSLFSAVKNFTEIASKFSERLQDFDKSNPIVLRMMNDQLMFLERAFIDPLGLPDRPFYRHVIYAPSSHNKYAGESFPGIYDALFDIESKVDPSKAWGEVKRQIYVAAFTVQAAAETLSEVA

| Substance | PSMA binding (statement in words) |
| --- | --- |
| LCMECYMMEDGTCA [21-31-12-T01-N001] | superior PSMA binding |
| Ac-(D-E)VCWDCFM(Nle)EDGTCA-Sar6-(D-K) [21-31-04-T01-N009] | superior PSMA binding |
| EVCWDCFMMEDGTCA [21-31-04-T01-N001] | superior PSMA binding |
| FCSECYMMEDGTCA [21-31-11-T01-N001] | superior PSMA binding |
